In PMC6009881, “New sulfurated derivatives of cinnamic acids and rosmaricine as inhibitors of STAT3 and NF-κB transcription factors” (Journal of Enzyme Inhibition and Medicinal Chemistry, 2017):
Where a name gives a salt, the structure may show the parent alone.

Experiments:
STAT3-SH2 domain = STAT3-SH2 domain (Homo sapiens, UniProt P40763); assay: STAT AlphaScreen-based assay (STAT3); format: binding; conditions: for IC50: read-out: STAT3 IC50 ±SD; for inhibition at 30 µM: read-out: STAT3 % inhibition ± SD at 30 μM
SH2-domain of STAT1 = target: T1, SH2-domain of STAT1 (Homo sapiens, UniProt P42224); assay: STAT AlphaScreen-based assay (STAT1 selectivity); format: binding; conditions: for inhibition at 30 µM: read-out: STAT1 % inhibition ± SD at 30 μM, 30 μM; for IC50: read-out: STAT1 IC50 ±SD
T1 sequence (P42224 1-750): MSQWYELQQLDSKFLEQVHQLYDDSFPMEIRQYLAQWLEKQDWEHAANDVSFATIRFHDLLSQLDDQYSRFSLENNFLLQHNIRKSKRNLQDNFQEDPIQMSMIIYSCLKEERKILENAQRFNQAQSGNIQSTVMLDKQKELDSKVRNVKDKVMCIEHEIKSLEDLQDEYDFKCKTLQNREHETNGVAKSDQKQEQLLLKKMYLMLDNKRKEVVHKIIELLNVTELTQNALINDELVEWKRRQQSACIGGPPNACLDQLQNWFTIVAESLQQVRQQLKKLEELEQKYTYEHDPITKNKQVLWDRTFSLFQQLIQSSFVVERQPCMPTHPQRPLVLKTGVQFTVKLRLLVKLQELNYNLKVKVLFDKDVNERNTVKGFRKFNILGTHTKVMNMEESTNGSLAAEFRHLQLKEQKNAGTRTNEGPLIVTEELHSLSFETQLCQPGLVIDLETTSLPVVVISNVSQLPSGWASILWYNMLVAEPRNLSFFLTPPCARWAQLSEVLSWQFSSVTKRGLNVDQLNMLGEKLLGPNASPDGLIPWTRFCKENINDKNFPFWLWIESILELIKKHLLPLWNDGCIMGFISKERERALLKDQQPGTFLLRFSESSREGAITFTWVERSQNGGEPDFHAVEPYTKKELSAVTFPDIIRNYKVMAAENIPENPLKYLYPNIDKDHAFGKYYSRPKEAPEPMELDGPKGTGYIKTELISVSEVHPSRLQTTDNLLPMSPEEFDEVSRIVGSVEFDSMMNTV
Description: STAT3 inhibitory activity of the described compounds was tested by the AlphaScreen-based assay to evaluate the potential inhibition of the interaction between STAT3-SH2 domain and pTyr-containing peptides according to the previously reported procedure. For the most interesting compounds, selectivity tests versus STAT1 were performed.
The new sulfurated-drug hybrids, together with their parent compounds have been submitted to the AlphaScreen-based assay, to investigate their ability to bind STAT3 directly, through the evaluation of the inhibition of the binding of SH2-containing proteins to their correspondent phosphopeptides, the physiological ligands. […] Since AlphaScreen is a cell-free assay, not always there is a correspondence between the potency of STAT3 inhibition and cytotoxicity, probably due to not optimal physicochemical properties of the tested compounds, such as solubility and chemical stability in the culture medium and cell permeation.

HCT-116 cells = assay: MTT assay, cytotoxicity on HCT-116; format: cell-based, human; conditions: human, HCT-116 cells, MTT assay, 48 h; NA = not active up to 100 μM; read-out: Cytotoxicity (HCT-116) IC50 ±SD
Description: Following the same protocol used for previous cytotoxicity assays by N. Ferri[55], cells were seeded in 48-well plate (40.000 cells/well) and, after 24 h, they were incubated with different concentrations of our compounds for 48 h.
The determination of the conversion of MTT (3-(4,5-dimethyl-2-thiazolyl)-2,5-diphenyl-2H-tetrazolium bromide) to formazan was determined by using a commercially available kit (Millipore, Billerica, MA), according to the manufacturer’s instructions.

[1] = system: NF-κB promoter activity in HCT-116 cells; assay: Luciferase reported NF-κB promoter activity assay; format: cell-based; conditions: Homo sapiens, 2 h pre-treatment, TNF-α 10 ng/ml, NA = not active up to 100 μM, read-out: NF-κB promoter assay (HCT-116) IC50 ±SD
Description: To measure the NF-κB promoter activity, HCT-116 cells were seeded in 100 mm dish and transiently transfected with 6 μg of DNA (NF-κB plasmid, containing luciferase reporter gene[57] with turbofect reagent (Carlo Erba Reagents). After 24 h, cells were seeded in 48-well plates (40.000 cells per well). On the next day, cells were incubated with our compounds for 2 h (pre-treatment) and then TNF-α was added in every well at (10 ng/ml). After 5–6 h, luciferase activity was measured by using Neolite reagent (PerkinElmer Life Sciences, Waltham, MA) according to the manufacturer’s instructions.

[2] = system: STAT3 reporter activity in HeLa cells; assay: STAT3 luciferase reporter gene assay; format: cell-based; conditions: Homo sapiens, 2 h pretreatment, oncostatin M 10 ng/ml 4 h, read-out: STAT3 reporter assay (HeLa) IC50 ±SD
Description: STAT3 reporter HeLa stable cell lines (Signosis Inc, Santa Clara, CA) were incubated in a 96-well microplate for 24 h. Cells were pretreated with test compounds for 2 h, and 10 ng/ml (w/v) of oncostatin M were applied and incubated for 4 h. Cells were washed with medium not supplemented with phenol red, and Steady-Glo® reagent (Promega, Madison, WI) was applied. After 15 min incubation, the signals were detected by ARVO Light 1420 (PerkinElmer Life Sciences, Waltham, MA). The relative signal intensity was calculated in each well as the ratio for the mean signal of vehicle.

Chain of STAT3-SH2 domain (P40763 whole entry, the tested form may be a part): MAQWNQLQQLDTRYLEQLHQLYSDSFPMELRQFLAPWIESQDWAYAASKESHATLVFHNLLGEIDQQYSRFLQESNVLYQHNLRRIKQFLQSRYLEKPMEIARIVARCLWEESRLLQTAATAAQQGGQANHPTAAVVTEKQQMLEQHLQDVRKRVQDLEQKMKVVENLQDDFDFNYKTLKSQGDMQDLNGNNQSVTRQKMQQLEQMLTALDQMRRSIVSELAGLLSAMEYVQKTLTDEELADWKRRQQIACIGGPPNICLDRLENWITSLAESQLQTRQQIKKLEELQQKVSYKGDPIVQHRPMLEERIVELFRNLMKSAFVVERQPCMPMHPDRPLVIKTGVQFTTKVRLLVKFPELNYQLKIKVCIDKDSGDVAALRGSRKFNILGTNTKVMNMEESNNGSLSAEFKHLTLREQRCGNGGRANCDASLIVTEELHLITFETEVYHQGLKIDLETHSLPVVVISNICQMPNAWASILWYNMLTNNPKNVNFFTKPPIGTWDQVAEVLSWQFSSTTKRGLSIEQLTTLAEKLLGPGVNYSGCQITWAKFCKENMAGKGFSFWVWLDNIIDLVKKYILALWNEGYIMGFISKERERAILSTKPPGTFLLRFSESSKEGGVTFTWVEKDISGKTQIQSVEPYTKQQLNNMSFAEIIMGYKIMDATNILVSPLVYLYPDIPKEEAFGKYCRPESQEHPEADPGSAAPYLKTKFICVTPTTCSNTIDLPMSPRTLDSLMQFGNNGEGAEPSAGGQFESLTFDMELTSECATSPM

Row | Structure (SMILES) | IC50 (STAT3-SH2 domain; AlphaScreen assay) [µM] | inhibition at 30 µM (STAT3-SH2 domain; AlphaScreen assay) [%] | inhibition at 30 µM (SH2-domain of STAT1) [%] | IC50 (SH2-domain of STAT1) [µM] | further results
1 | CS(=O)(=O)SCCO [Compound 1, S-2-hydroxyethyl methanesulfonothioate] | > 30 | 11.6 |  |  | 
2 | CS(=O)(=O)SCCCCO [Compound 2, S-4-hydroxybutyl methanesulfonothioate] | 4.4 ± 0.3 | 88.4 ± 0.5 | 73.7 ± 1.4 | 8.6 ± 0.7 | 
3 | CS(=O)(=O)SCCN [Compound 3, S-2-aminoethyl methanesulfonothioate hydrobromide] | > 30 | -10.2 |  | > 3 | inhibition at 3 µM (SH2-domain of STAT1): 14.5%; inhibition at 3 µM (STAT3-SH2 domain; AlphaScreen assay, 3 μM): 46.8%
4 | C=CCSSCCO [Compound 4, 2-(Allyldisulfanyl)ethanol] | 22.2 ± 3 | 55.7 ± 2.5 | 11.7 ± 6 | > 30 | 
5 | Oc1ccc(-c2cc(=S)ss2)cc1 [Compound 5, 5-(4-hydroxyphenyl)-1,2-dithiol-3-thione] | > 30 | 43.7 |  |  | IC50 at 48 h (HCT-116 cells): 71.2 ± 15 µM; IC50 [1]: 36.7 ± 11.4 µM
6 | CS(=O)(=O)SCCCCC(=O)O [Compound 6, 5-(methanesulfonylthio)pentanoic acid] | 4.7 ± 1.1 | 72.5 ± 4.8 |  | > 3 | inhibition at 3 µM (SH2-domain of STAT1): 8.6%
7 | CS(=O)(=O)CCCCC(=O)O [Compound 8, 5-(Methylsulfonyl)pentanoic acid] | > 30 | 3.8 ± 2.8 |  |  | melting point: 111.3 to 112.8 °C; STAT3 IC50 ±SD (STAT3-SH2 domain; AlphaScreen assay): loss of activity on STAT3
8 | C=CCSSCCC(=O)O [Compound 9, 3-(allyldisulfanyl)propionic acid] | > 30 | 43.9 ± 3.6 |  |  | 
9 | C=CCSSCCC(=O)OC [Compound 10, Methyl 3-(allyldisulfanyl)propanoate] | > 30 | 42 ± 4.7 | 11.2 | > 30 | 
10 | O=C(O)c1ccc(-c2cssc2=S)cc1 [Compound 11, 4-(3-thioxo-3H-1,2-dithiol-4-yl)benzoic acid] | > 100 | -1.2 ± 6 |  |  | IC50 [2]: > 100 µM
11 | COc1cc(/C=C/C(=O)Oc2ccc(-c3cc(=S)ss3)cc2)ccc1O [Compound 18, (E)-4-(3-thioxo-3H-1,2-dithiol-5-yl)phenyl 3-(4-hydroxy-3-methoxyphenyl)acrylate] | 28.5 ± 0.7 | 51.3 ± 0.7 | 44.2 ± 1.9 | > 30 | 
12 | COc1ccc(/C=C/C(=O)OCCSS(C)(=O)=O)cc1OC [Compound 27, (E)-2-((methylsulfonyl)thio)ethyl 3-(3,4-dimethoxyphenyl)acrylate] | 0.3 | 99.7 ± 0.1 | 68.9 ± 10.2 | 20.9 ± 4.9 | melting point: 99.8 to 102.7 °C; fold more selective for STAT3 versus STAT1 (STAT3-SH2 domain; in comparison to 15 and 26): 10 fold

Now from value to compound, other results behind:

Row | IC50 (STAT3-SH2 domain; AlphaScreen assay) [µM] | inhibition at 30 µM (STAT3-SH2 domain; AlphaScreen assay) [%] | inhibition at 30 µM (SH2-domain of STAT1) [%] | IC50 (SH2-domain of STAT1) [µM] | Structure (SMILES) | further results
13 | 1.9 ± 0.2 | 99.6 ± 0.1 | 70.8 ± 1.2 | 20.1 ± 0.4 | COC(=O)CCCCSS(C)(=O)=O [Compound 7, Methyl 5-((methylsulfonyl)thio)pentanoate] | 
14 | > 30 | 0.2 ± 8.2 |  |  | COc1cc(/C=C/C(=O)O)ccc1O [Compound 12, ferulic acid, reference compound] | 
15 | > 30 | 2.1 ± 2.3 |  |  | COC(=O)/C=C/c1ccc(O)c(OC)c1 [Compound 13] | 
16 | 0.9 | 110.1 ± 0.2 | 110.5 ± 0.6 | 7 ± 0.7 | COc1cc(/C=C/C(=O)OCCSS(C)(=O)=O)ccc1O [Compound 14, (E)-2-(methylsulfonylthio)ethyl 3-(4-hydroxy-3-methoxyphenyl)acrylate] | IC50 [2]: 65.4 ± 1 µM; IC50 at 48 h (HCT-116 cells): 50.4 ± 5.9 µM; IC50 [1]: 116 ± 2.9 µM
17 | 0.3 | 100 ± 0.1 | 86 ± 6.7 | 1.8 ± 0.4 | COc1cc(/C=C/C(=O)OCCCCSS(C)(=O)=O)ccc1O [Compound 15, (E)-4-(methylsulfonylthio)butyl 3-(4-hydroxy-3-methoxyphenyl)acrylate] | IC50 [2]: 57.5 ± 1.1 µM; IC50 at 48 h (HCT-116 cells): 64.4 ± 9.1 µM; IC50 [1]: 94 ± 4.6 µM
18 | 1.8 ± 0.5 | 107.8 ± 0.1 | 4.1 ± 5.4 | > 30 | COc1cc(/C=C/C(=O)NCCSS(C)(=O)=O)ccc1O [Compound 16, (E)-S-2-(3-(4-hydroxy-3-methoxyphenyl)acrylamido)ethyl methanesulfonothioate] | 
19 | 7.8 ± 0.6 | 67.9 ± 0.8 | 12 ± 4.7 | > 30 | C=CCSSCCOC(=O)/C=C/c1ccc(O)c(OC)c1 [Compound 17, (E)-2-(allyldisulfanyl)ethyl 3-(4-hydroxy-3-methoxyphenyl)acrylate] | 
20 | > 30 | 12.8 ± 1.1 |  |  | COC(=O)/C=C/c1ccc(O)c(O)c1 [Compound 20, (E)-methyl 3-(3,4-dihydroxyphenyl)acrylate] | IC50 at 48 h (HCT-116 cells): 90.8 µM
21 | 0.9 ± 0.1 | 99.8 ± 0.1 | -17.8 ± 0.3 | > 30 | CS(=O)(=O)SCCNC(=O)/C=C/c1ccc(O)c(O)c1 [Compound 22, (E)-S-2-(3-(3,4-dihydroxyphenyl)acrylamido)ethyl methanesulfonothioate] | 
22 | 0.5 | 100 | 100.3 ± 0.2 | 3.6 ± 0.4 | CS(=O)(=O)SCCOC(=O)C=Cc1ccccc1 [Compound 25, 2-(Methylsulfonylthio)ethyl cinnamate] | IC50 [2]: 72.5 ± 4.4 µM; melting point: 76.8 to 78.5 °C; IC50 at 48 h (HCT-116 cells): 95.2 ± 8.9 µM
23 | 0.3 | 100 ± 0.1 | 104 ± 1.7 | 1.9 ± 0.2 | CS(=O)(=O)SCCOC(=O)/C=C/c1ccc(Cl)c(Cl)c1 [Compound 26, (E)-2-(methylsulfonylthio)ethyl 3-(3,4-dichlorophenyl)acrylate] | melting point: 69.6 to 71.2 °C
24 | 0.6 ± 0.1 | 100 ± 0.1 | 98.4 ± 0.9 | 6.3 ± 0.5 | COCCOCOc1ccc(/C=C/C(=O)OCCSS(C)(=O)=O)cc1OCOCCOC [Compound 28, (E)-2-(methylsulfonylthio)ethyl 3-(3,4-bis((2-methoxyethoxy)methoxy)phenyl)acrylate] | 
25 | 1.1 | 100.1 ± 0.1 | 63.3 ± 0.5 | 19.5 ± 0.3 | COCCOCOc1ccc(/C=C/C(=O)NCCSS(C)(=O)=O)cc1OCOCCOC [Compound 29, (E)-S-2-(3-(3,4-bis((2-methoxyethoxy)methoxy)phenyl)acrylamido)ethyl methanesulfonothioate] | melting point: 62.3 to 64.6 °C
